Where “and” joins values, the source holds several entries; their conditions need not be identical. Equal entries are not always repeated. Where two headings read alike, the source gives them in different places.
Legend:
[1] = target: T1, hKv7.1 + minK (Homo sapiens, UniProt P51787); test: Whole-cell patch-clamp on HEK293T cells, IKs; type: cell-based; settings: for inhibition at 200 µM: HEK-293T
T1 construct: host or cells: HEK293T
Description: (§1) Experiments were performed on HEK293T cell lines with persistent/inducible expression of different human cardiac ion channel isoforms: hNav1.5 and hKv7.1 + minK (Anaxon AG, Bern, Switzerland), hCav1.2 (α1c + β2 + α2δ1) (B’SYS GmbH, Witterswil, Switzerland), and hKv11.1 (hERG) (Cytocentrics Bioscience GmbH, Rostock, Germany). The cell lines were grown in standard conditions (37 °C, 5% CO2, 90% humidity) in DMEM:F12 medium (D8900, Sigma-Aldrich, Burlington, MA, USA) buffered with 15 mM HEPES, containing 3.15 g/L D-glucose and 0.055 g/L sodium pyruvate, supplemented with 1.2 g/L sodium bicarbonate, 10% fetal bovine serum (F2442, Sigma-Aldrich, Burlington, MA, USA), 2 mM L-glutamine (G7513, Sigma-Aldrich, Burlington, MA, USA), 1% penicillin–streptomycin (P4333, Sigma-Aldrich, Burlington, MA, USA), and with specific antibiotics for selection of transfected cells or induction of gene expression according to manufacturers’ instructions. The medium was changed every 2–3 days and the cells were passed weekly upon detachment with trypsin–EDTA solution. All cell culture media and solutions were sterile filtered with 0.22 μm polyvinylidene fluoride filters. Ncyte® vCardiomyocytes (Ncardia, Leiden, The Netherlands) were cultured in 24-well plates precoated with bovine fibronectin, following manufacturer’s instructions. For the experiments, cardiomyocytes were detached as described previously and plated on ϕ 10 mm glass coverslips, like the other cell lines.
Manual whole-cell patch-clamp experiments were performed at room temperature, with equipment as described in previous studies. Pipettes were pulled from Clark borosilicate glass capillaries with inner filament (GC150F-10, Harvard Apparatus, Holliston, MA, USA) and had typical resistances of 2–3 MΩ. Recordings were performed with a WPC-100 resistive feedback amplifier (ESF electronic, Göttingen, Germany) or an Axopatch 200B amplifier (Axon Instruments—Molecular Devices, San Jose, CA, USA) connected to a Digidata 1322A interface driven by the pClamp 8.2 Clampex module (Axon Instruments, part of Molecular Devices, San Jose, CA, USA). […]

[2] = target: T2, hKv11.1 (hERG) (Homo sapiens, UniProt Q12809); test: Whole-cell patch-clamp on HEK293T cells, IKr; type: cell-based
T2 construct: host or cells: HEK293T
T2 sequence (Q12809 whole entry): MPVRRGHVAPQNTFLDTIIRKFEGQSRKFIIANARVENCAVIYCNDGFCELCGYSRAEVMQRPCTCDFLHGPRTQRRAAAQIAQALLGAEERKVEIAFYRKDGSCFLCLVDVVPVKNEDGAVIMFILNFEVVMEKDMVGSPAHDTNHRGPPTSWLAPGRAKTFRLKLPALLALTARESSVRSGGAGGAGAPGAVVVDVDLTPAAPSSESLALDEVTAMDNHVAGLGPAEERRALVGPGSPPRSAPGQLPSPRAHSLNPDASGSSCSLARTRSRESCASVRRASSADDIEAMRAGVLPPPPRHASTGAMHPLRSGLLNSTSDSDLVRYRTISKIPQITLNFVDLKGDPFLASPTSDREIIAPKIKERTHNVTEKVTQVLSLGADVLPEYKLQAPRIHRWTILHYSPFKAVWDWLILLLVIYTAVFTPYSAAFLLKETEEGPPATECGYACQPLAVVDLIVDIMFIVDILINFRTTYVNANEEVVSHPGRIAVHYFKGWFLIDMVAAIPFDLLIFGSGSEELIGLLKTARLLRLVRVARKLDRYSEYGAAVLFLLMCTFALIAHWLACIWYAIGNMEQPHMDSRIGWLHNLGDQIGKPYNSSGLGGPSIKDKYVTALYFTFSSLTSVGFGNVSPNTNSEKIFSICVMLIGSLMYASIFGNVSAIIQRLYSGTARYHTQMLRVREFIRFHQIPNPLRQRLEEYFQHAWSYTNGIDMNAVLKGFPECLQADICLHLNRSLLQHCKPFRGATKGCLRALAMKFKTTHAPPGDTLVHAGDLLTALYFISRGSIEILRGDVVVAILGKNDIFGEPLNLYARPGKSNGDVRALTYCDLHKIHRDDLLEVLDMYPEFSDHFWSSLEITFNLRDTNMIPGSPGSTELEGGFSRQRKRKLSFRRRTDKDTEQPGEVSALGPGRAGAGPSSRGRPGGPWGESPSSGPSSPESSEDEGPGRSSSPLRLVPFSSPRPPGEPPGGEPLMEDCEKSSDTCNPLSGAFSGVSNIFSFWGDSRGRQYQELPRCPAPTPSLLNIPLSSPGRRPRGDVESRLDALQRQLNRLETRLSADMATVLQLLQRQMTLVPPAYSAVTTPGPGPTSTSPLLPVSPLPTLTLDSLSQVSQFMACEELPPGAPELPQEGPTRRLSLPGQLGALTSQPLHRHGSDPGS
Description: as §1
(§2) Manual whole-cell patch-clamp experiments were performed at room temperature, with equipment as described in previous studies. Pipettes were pulled from Clark borosilicate glass capillaries with inner filament (GC150F-10, Harvard Apparatus, Holliston, MA, USA) and had typical resistances of 2–3 MΩ. Recordings were performed with a WPC-100 resistive feedback amplifier (ESF electronic, Göttingen, Germany) or an Axopatch 200B amplifier (Axon Instruments—Molecular Devices, San Jose, CA, USA) connected to a Digidata 1322A interface driven by the pClamp 8.2 Clampex module (Axon Instruments, part of Molecular Devices, San Jose, CA, USA). For different types of ion channel, we applied specific voltage-clamp protocols as follows: • - For hERG, a standard two-step activation protocol was used: holding at −70 mV, a 100 ms step at −50 mV used as current reference for measurements, a 2 s depolarizing step at +40 mV, followed by a 2 s step at −50 mV to elicit the peak hERG current by rapid recovery from inactivation, repeated sweeps at 10 s intervals, plus specific protocols to assess the voltage dependence of activation and inactivation, as described in Thomet et al., 2021 [11]. • - For hKv7.1 + minK, a general two-step activation protocol was used: holding at −110 mV, a 250 ms step at −80 mV with a brief (50 ms) step at −90 mV at the middle to monitor seal quality, a 3000 ms depolarizing step at +60 mV, followed by a 1000 ms step at −50 mV; repeated sweeps at 20 s intervals. • - For hCav1.2, a pharmacology protocol with holding at −80 mV, a first 100 ms step at −50 mV and a second 200 ms step at 0 mV, repeated sweeps at 20 s intervals with drug application after 5 sweeps if current levels were steady, plus an activation–inactivation protocol with holding at −80 mV, 1000 ms depolarizing steps from −80 to +50 mV in 10 mV increments, followed by 250 ms steps at +10 mV and a return to −80 mV; 14 sweeps at 20 s intervals. • - For hNav1.5, multiple voltage protocols were used, including the following: • - A standard pharmacology protocol with holding at −90 mV, a 20 ms step at −110 mV for seal monitoring, a 40 ms activation step at −10 mV, and repeated sweeps at 1 s intervals. […]

[3] = target: T3, hKv11.1 (hERG), IKr (Homo sapiens, UniProt Q12809); test: Whole-cell patch-clamp on HEK293T cells, IKr; type: cell-based; settings: human, HEK293T cells expressing hKv11.1 (hERG); for inhibition at 200 µM: pH 7.4, cenobamate 200 µM
T3 construct: host or cells: HEK293T
T3 sequence (Q12809 whole entry): as above
Description: as §1, §2

[4] = target: T4, hCav1.2 (α1c + β2 + α2δ1) (Homo sapiens, UniProt Q13936); test: Whole-cell patch-clamp on HEK293T cells, ICaL; type: cell-based
T4 construct: host or cells: HEK293T
Description: as §1, §2

[5] = cited from earlier work
[6] = rabbit; ref [5] p.10; cited from earlier work
[7] = system: neuronal Na+ channels; parameters: method as in PMID 33993416; settings: ref [6]; read-out: IC50 on late (persistent) neuronal Na+ current; cited from earlier work

T1 sequence (P51787 whole entry): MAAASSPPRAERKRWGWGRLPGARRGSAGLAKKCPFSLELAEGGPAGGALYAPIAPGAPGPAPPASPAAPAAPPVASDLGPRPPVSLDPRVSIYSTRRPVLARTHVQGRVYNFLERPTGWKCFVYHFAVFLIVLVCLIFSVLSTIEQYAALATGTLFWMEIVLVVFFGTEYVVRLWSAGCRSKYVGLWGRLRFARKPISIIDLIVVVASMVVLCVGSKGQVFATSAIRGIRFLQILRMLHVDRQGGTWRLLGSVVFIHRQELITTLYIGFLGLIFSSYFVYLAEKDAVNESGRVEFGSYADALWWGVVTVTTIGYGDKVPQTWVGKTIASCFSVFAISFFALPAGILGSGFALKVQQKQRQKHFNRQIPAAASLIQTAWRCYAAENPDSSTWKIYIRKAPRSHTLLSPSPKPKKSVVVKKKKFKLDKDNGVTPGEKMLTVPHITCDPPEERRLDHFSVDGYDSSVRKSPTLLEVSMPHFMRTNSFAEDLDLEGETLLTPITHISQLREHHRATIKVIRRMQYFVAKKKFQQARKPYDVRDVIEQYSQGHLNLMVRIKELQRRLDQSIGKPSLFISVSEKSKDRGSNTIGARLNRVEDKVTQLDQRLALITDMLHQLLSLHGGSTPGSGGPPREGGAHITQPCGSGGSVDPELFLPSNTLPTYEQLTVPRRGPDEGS

Question: For `NC(=O)O[C@@H](Cn1ncnn1)c1ccccc1Cl` [cenobamate], which IC50 [1] is on record?
Answer: The IC50 was greater than 200 µM.

Question: What about the inhibition at 200 µM ([1]; cenobamate 200 µM, mean (SD), n = 8, not corrected for control rundown 23.66%, read-out: average inhibition of IKs plateau current at +60 mV) of the same molecule?
Answer: The inhibition at 200 µM was 36.7 ± 13%.

Question: What about the inhibition at 200 µM ([1]; cenobamate 200 µM, read-out: estimated net average IKs inhibition (cenobamate 200 µM − control)) of the same molecule?
Answer: Its inhibition at 200 µM is 13%.

Question: And the “average inhibition of IKs plateau current at +60 mV” value ([1]; cenobamate 200 µM, mean (SD), n = 8, not corrected for control rundown 23.66%)?
Answer: Its value is 36.68 ± 13.02%.

Question: What about the IC50 [2] of the same molecule?
Answer: The IC50 was greater than 200 µM.

Question: What about the “% IKr inhibition, single experiments (Table S7)” value ([2]; cenobamate 200 µM) of the same molecule?
Answer: Its value is 14.26% and 12.93% and 7.32% and 12.35%.

Question: What about the inhibition at 20 µM ([3]; pH 7.4, cenobamate 20 µM, vs. 4.1% in control experiments, read-out: average peak IKr (hERG) inhibition) of the same molecule?
Answer: The inhibition at 20 µM was 5.3 ± 1.8%.

Question: What about the inhibition at 200 µM ([3]; read-out: % IKr inhibition, single experiments (Table S7)) of the same molecule?
Answer: Its inhibition at 200 µM is 8.01%.

Question: What about the inhibition at 200 µM ([3]; read-out: average peak IKr inhibition corrected for control (10.97 − 4.1)) of the same molecule?
Answer: Its inhibition at 200 µM is 6.87%.

Question: What about the inhibition at 200 µM ([3]; step at -50 mV, read-out: relative peak IKr inhibition, mean) of the same molecule?
Answer: Its inhibition at 200 µM is 11 ± 3.11%.

Question: And the inhibition at 20 µM ([4]; HEK-293T, cenobamate 20 µM, read-out: % ICaL inhibition, mean (Table S5))?
Answer: Its inhibition at 20 µM is 6.65%.

Question: And the inhibition at 100 µM ([4]; HEK-293T, cenobamate 100 µM, read-out: % ICaL inhibition, mean (Table S5))?
Answer: Its inhibition at 100 µM is 11.3%.

Question: And the inhibition at 100 µM ([4]; HEK-293T, cenobamate 100 µM, read-out: % ICaL inhibition, single experiments (Table S5))?
Answer: Its inhibition at 100 µM is 11.2%.

Question: And the inhibition at 200 µM ([4]; HEK-293T, cenobamate 200 µM, read-out: % ICaL inhibition, mean (Table S5))?
Answer: Its inhibition at 200 µM is 34.5%.

Question: What about the inhibition at 200 µM ([4]; HEK-293T, cenobamate 200 µM, step at 0 mV, initial set, mean (SD), n = 4, read-out: average inhibition of peak ICaL amplitude) of the same molecule?
Answer: The inhibition at 200 µM was 39.3 ± 13.8%.

Question: What about the inhibition at 400 µM ([4]; HEK-293T, cenobamate 400 µM, read-out: % ICaL inhibition, mean (Table S5)) of the same molecule?
Answer: Its inhibition at 400 µM is 42%.

Question: And the inhibition at 400 µM ([4]; HEK-293T, cenobamate 400 µM, read-out: % ICaL inhibition, single experiments (Table S5))?
Answer: The inhibition at 400 µM was 39%.

Question: What about the inhibition at 1000 µM ([4]; HEK-293T, cenobamate 1000 µM, read-out: % ICaL inhibition, mean (Table S5)) of the same molecule?
Answer: The inhibition at 1000 µM was 65.3%.

Question: What about the IC50 ([4]; ICaLIC50 (model script), value entered in C++ script) of the same molecule?
Answer: Its IC50 is 510 µM.

Question: And the IC50 ([4]; apparent IC50 for hCav1.2 (ICaL) inhibition, unitary Hill coefficient)?
Answer: The IC50 was 510 µM.

Question: And the “% ICaL inhibition, single experiments (Table S5)” value (“% ICaL inhibition” for short) ([4]; cenobamate 100 µM)?
Answer: Its value is 11.40% and 10.58% and 12.03%.

Question: And the “average inhibition of peak ICaL amplitude” value ([4]; cenobamate 200 µM, step at 0 mV, initial set, mean (SD), n = 4)?
Answer: The value was 39.26 ± 13.78%.

Question: What about the “% ICaL inhibition” value ([4]; cenobamate 400 µM) of the same molecule?
Answer: Its value is 41.25% and 47.37% and 40.40%.

Question: What about the “% ICaL inhibition” value ([4]; cenobamate 1000 µM) of the same molecule?
Answer: The value was 77.36% and 58.39% and 76.52% and 52.87% and 61.56%.

Question: And the “peak plasma therapeutic concentration (Cmax)” value ([5]; 400 mg/day, study YKP3089C018, ref [5] p. 13)?
Answer: The value was 45500 ng/mL.

Question: What about the Cmax ([5]; read-out: Cmax (maximal effective therapeutic plasma concentration), 400 mg/day, ref [5] p. 13 / p. 10) of the same molecule?
Answer: The Cmax was 170 µM.

Question: What about the Cmax ([5]; read-out: Cmax (model script), value entered in C++ script, ref [5]) of the same molecule?
Answer: Its Cmax is 170 µM.

Question: And the protein binding [6]?
Answer: Its protein binding is 35.4%.

Question: What about the IC50 [7] of the same molecule?
Answer: The IC50 was 59 µM.
